In US20260027116A1, “Methods of Treating Chronic Graft-Versus-Host Disease Following Allogeneic Hematopoietic Stem Cell Transplantation” (Kadmon Corporation, LLC, priority 2022, published 2026):

Test system: lung function
Assay: Example 1: percent predicted FVC change from baseline
Type: in vivo, human
Settings: mean (SD)
Experimental: Change From Baseline in Percent Predicted Forced Vital Capacity (FVC) at Each Specified Time Points. FVC was the total amount of air (in liters) exhaled from the lungs during the lung function test measured by spirometer which assessed the change in lung function related to the disease status. Baseline value was defined as valid and last non-missing value obtained within 28 days prior to participant receiving first study medication. EOT visit was performed within 3 days after the participant's last dose of study drug. […] Analysis was performed on mITT population. Here, ‘number analyzed’=participants with available data for each specified category. Here, ‘0’ in the number analyzed field signifies that none of the participants were available for the analysis at the specified time points.

SMILES: CC(C)NC(=O)COc1cccc(-c2nc(Nc3ccc4[nH]ncc4c3)c3ccccc3n2)c1 [Belumosudil, 2-{3-[4-(1H-indazol-5-ylamino)-2-quinazolinyl]phenoxy}-N-(propan-2-yl) acetamide]
- Change From Baseline in Percent Predicted Forced Vital Capacity (FVC) (Cohort 2: 200 mg BID, Cycle 13, Day 1): −3.3 (15.4) percent predicted FVC
- Change From Baseline in Percent Predicted Forced Vital Capacity (FVC) (Cohort 2: 200 mg BID, Cycle 14, Day 1): 2.0 (— ) percent predicted FVC
- Change From Baseline in Percent Predicted Forced Vital Capacity (FVC) (Cohort 2: 200 mg BID, Cycle 15, Day 1): −3.3 (5.5) percent predicted FVC
- Change From Baseline in Percent Predicted Forced Vital Capacity (FVC) (Cohort 2: 200 mg BID, Cycle 16, Day 1): −6.0 (19.8) percent predicted FVC
- Change From Baseline in Percent Predicted Forced Vital Capacity (FVC) (Cohort 2: 200 mg BID, Cycle 17, Day 1): −3.0 (11.8) percent predicted FVC
- Change From Baseline in Percent Predicted Forced Vital Capacity (FVC) (Cohort 2: 200 mg BID, Cycle 18, Day 1): −7.5 (9.2) percent predicted FVC
- Change From Baseline in Percent Predicted Forced Vital Capacity (FVC) (Cohort 2: 200 mg BID, Cycle 19, Day 1): −5.3 (4.7) percent predicted FVC
- Change From Baseline in Percent Predicted Forced Vital Capacity (FVC) (Cohort 2: 200 mg BID, Cycle 20, Day 1): −10.5 (2.1) percent predicted FVC
- Change From Baseline in Percent Predicted Forced Vital Capacity (FVC) (Cohort 2: 200 mg BID, Cycle 21, Day 1): −3.0 (—) percent predicted FVC
- Change From Baseline in Percent Predicted Forced Vital Capacity (FVC) (Cohort 2: 200 mg BID, Cycle 22, Day 1): −11.0 (0.0) percent predicted FVC
- Change From Baseline in Percent Predicted Forced Vital Capacity (FVC) (Cohort 2: 200 mg BID, Cycle 23, Day 1): −11.0 (2.8) percent predicted FVC
- Change From Baseline in Percent Predicted Forced Vital Capacity (FVC) (Cohort 2: 200 mg BID, Cycle 24, Day 1): −13.0 (—) percent predicted FVC
- Change From Baseline in Percent Predicted Forced Vital Capacity (FVC) (Cohort 2: 200 mg BID, Cycle 25, Day 1): −10.5 (3.5) percent predicted FVC
- Change From Baseline in Percent Predicted Forced Vital Capacity (FVC) (Cohort 2: 200 mg BID, Cycle 27, Day 1): −18.0 (12.7) percent predicted FVC
- Change From Baseline in Percent Predicted Forced Vital Capacity (FVC) (Cohort 2: 200 mg BID, Cycle 29, Day 1): −11.0 (—) percent predicted FVC
- Change From Baseline in Percent Predicted Forced Vital Capacity (FVC) (Cohort 2: 200 mg BID, Cycle 31, Day 1): −15.5 (7.8) percent predicted FVC
- Change From Baseline in Percent Predicted Forced Vital Capacity (FVC) (Cohort 2: 200 mg BID, Cycle 33, Day 1): −17.5 (7.8) percent predicted FVC
- Change From Baseline in Percent Predicted Forced Vital Capacity (FVC) (Cohort 2: 200 mg BID, Cycle 35, Day 1): −15.0 (11.3) percent predicted FVC
- Change From Baseline in Percent Predicted Forced Vital Capacity (FVC) (Cohort 2: 200 mg BID, EOT): −8.4 (9.2) percent predicted FVC
- Change From Baseline in Percent Predicted Forced Vital Capacity (FVC) (Cohort 3: 400 mg QD, Cycle 2, Day 1): −5.5 (9.9) percent predicted FVC
- Change From Baseline in Percent Predicted Forced Vital Capacity (FVC) (Cohort 3: 400 mg QD, Cycle 3, Day 1): −3.0 (6.7) percent predicted FVC
- Change From Baseline in Percent Predicted Forced Vital Capacity (FVC) (Cohort 3: 400 mg QD, Cycle 4, Day 1): −0.2 (8.6) percent predicted FVC
- Change From Baseline in Percent Predicted Forced Vital Capacity (FVC) (Cohort 3: 400 mg QD, Cycle 5, Day 1): 1.6 (6.3) percent predicted FVC
- Change From Baseline in Percent Predicted Forced Vital Capacity (FVC) (Cohort 3: 400 mg QD, Cycle 6, Day 1): 0.8 (9.5) percent predicted FVC
- Change From Baseline in Percent Predicted Forced Vital Capacity (FVC) (Cohort 3: 400 mg QD, Cycle 7, Day 1): 2.3 (9.7) percent predicted FVC
- Change From Baseline in Percent Predicted Forced Vital Capacity (FVC) (Cohort 3: 400 mg QD, Cycle 8, Day 1): 0.4 (8.9) percent predicted FVC
- Change From Baseline in Percent Predicted Forced Vital Capacity (FVC) (Cohort 3: 400 mg QD, Cycle 9, Day 1): −0.8 (9.5) percent predicted FVC
- Change From Baseline in Percent Predicted Forced Vital Capacity (FVC) (Cohort 3: 400 mg QD, Cycle 10, Day 1): 4.7 (4.9) percent predicted FVC
- Change From Baseline in Percent Predicted Forced Vital Capacity (FVC) (Cohort 3: 400 mg QD, Cycle 11, Day 1): −4.4 (12.0) percent predicted FVC
- Change From Baseline in Percent Predicted Forced Vital Capacity (FVC) (Cohort 3: 400 mg QD, Cycle 12, Day 1): 0.7 (5.8) percent predicted FVC
- Change From Baseline in Percent Predicted Forced Vital Capacity (FVC) (Cohort 3: 400 mg QD, Cycle 13, Day 1): −4.9 (9.8) percent predicted FVC
- Change From Baseline in Percent Predicted Forced Vital Capacity (FVC) (Cohort 3: 400 mg QD, Cycle 14, Day 1): −2.7 (7.1) percent predicted FVC
- Change From Baseline in Percent Predicted Forced Vital Capacity (FVC) (Cohort 3: 400 mg QD, Cycle 15, Day 1): −4.8 (11.5) percent predicted FVC
- Change From Baseline in Percent Predicted Forced Vital Capacity (FVC) (Cohort 3: 400 mg QD, Cycle 16, Day 1): −6.5 (6.5) percent predicted FVC
- Change From Baseline in Percent Predicted Forced Vital Capacity (FVC) (Cohort 3: 400 mg QD, Cycle 17, Day 1): −5.6 (12.8) percent predicted FVC
- Change From Baseline in Percent Predicted Forced Vital Capacity (FVC) (Cohort 3: 400 mg QD, Cycle 18, Day 1): 4.0 (4.0) percent predicted FVC
- Change From Baseline in Percent Predicted Forced Vital Capacity (FVC) (Cohort 3: 400 mg QD, Cycle 19, Day 1): 0.8 (5.1) percent predicted FVC
- Change From Baseline in Percent Predicted Forced Vital Capacity (FVC) (Cohort 3: 400 mg QD, Cycle 20, Day 1): −2.0 (5.6) percent predicted FVC
- Change From Baseline in Percent Predicted Forced Vital Capacity (FVC) (Cohort 3: 400 mg QD, Cycle 21, Day 1): −6.6 (17.0) percent predicted FVC
- Change From Baseline in Percent Predicted Forced Vital Capacity (FVC) (Cohort 3: 400 mg QD, Cycle 22, Day 1): −6.0 (8.5) percent predicted FVC
- Change From Baseline in Percent Predicted Forced Vital Capacity (FVC) (Cohort 3: 400 mg QD, Cycle 23, Day 1): −1.8 (10.6) percent predicted FVC
- Change From Baseline in Percent Predicted Forced Vital Capacity (FVC) (Cohort 3: 400 mg QD, Cycle 24, Day 1): −15.0 (—) percent predicted FVC
- Change From Baseline in Percent Predicted Forced Vital Capacity (FVC) (Cohort 3: 400 mg QD, Cycle 25, Day 1): −1.3 (11.7) percent predicted FVC
- Change From Baseline in Percent Predicted Forced Vital Capacity (FVC) (Cohort 3: 400 mg QD, Cycle 27, Day 1): −4.0 (21.2) percent predicted FVC
- Change From Baseline in Percent Predicted Forced Vital Capacity (FVC) (Cohort 3: 400 mg QD, Cycle 29, Day 1): 6.0 (1.4) percent predicted FVC
- Change From Baseline in Percent Predicted Forced Vital Capacity (FVC) (Cohort 3: 400 mg QD, Cycle 31, Day 1): −4.0 (—) percent predicted FVC
- Change From Baseline in Percent Predicted Forced Vital Capacity (FVC) (Cohort 3: 400 mg QD, Cycle 35, Day 1): −3.0 (—) percent predicted FVC
- Change From Baseline in Percent Predicted Forced Vital Capacity (FVC) (Cohort 3: 400 mg QD, Cycle 36, Day 1): 2.0 (—) percent predicted FVC
- Change From Baseline in Percent Predicted Forced Vital Capacity (FVC) (Cohort 3: 400 mg QD, Cycle 49, Day 1): 2.0 (—) percent predicted FVC
- Change From Baseline in Percent Predicted Forced Vital Capacity (FVC) (Cohort 3: 400 mg QD, EOT): −7.8 (14.7) percent predicted FVC
